From ChEMBL document CHEMBL1201862, “PubChem BioAssay data set” (2004)
Several values for one entry are separate records, joined by “and”; a condition that tells them apart may be missing. Equal entries are not always repeated. Activity calls are given as the source filed them.

Legend:
[1] = ZM109 Env clade C HIV-1 fusion inhibitors, dose response, HeLa effector, CEM target cells, luciferase, cherry-pick (AID 652058); assay type: functional, cell-based
[2] = inhibitors of HIV Env-driven cell fusion, dose response, cherry-pick (AID 652057); assay type: functional, cell-based
[3] = inhibitors of clade B AD8 Env fusion, dose response, cell-based, cherry-pick (AID 652062); assay type: functional;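 further: luciferase signal from cell-cell fusion driven by HIV-1 clade B AD8 Env; potency is for inhibitors of fusion seen as a drop in luminescence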
Cytochrome P450 2C9 = Cytochrome P450 2C9 (Homo sapiens, UniProt P11712)
Cytochrome P450 2C9, sequence (P11712 whole entry): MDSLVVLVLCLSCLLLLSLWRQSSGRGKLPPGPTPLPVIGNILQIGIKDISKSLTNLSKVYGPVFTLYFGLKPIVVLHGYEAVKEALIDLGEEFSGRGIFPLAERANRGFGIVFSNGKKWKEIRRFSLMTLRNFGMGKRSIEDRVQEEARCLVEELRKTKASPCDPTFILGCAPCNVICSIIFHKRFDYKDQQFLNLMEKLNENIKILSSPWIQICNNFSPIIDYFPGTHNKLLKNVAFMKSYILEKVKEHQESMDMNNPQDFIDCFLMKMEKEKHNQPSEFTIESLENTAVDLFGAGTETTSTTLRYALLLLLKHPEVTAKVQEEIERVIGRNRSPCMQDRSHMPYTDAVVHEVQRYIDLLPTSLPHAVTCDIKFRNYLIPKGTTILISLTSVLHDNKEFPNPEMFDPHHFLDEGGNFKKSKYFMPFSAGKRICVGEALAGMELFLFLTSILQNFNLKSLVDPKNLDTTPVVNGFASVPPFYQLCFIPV

Cytochrome P450 2C19 = Cytochrome P450 2C19 (Homo sapiens, UniProt P33261); experiment: Cytochrome panel assay with activity outcomes. Panel member name: p450-cyp2c19 Compounds with AC50 equal or less than 10 uM are considered active; assay type: functional; conditions: read-out: AC50
Cytochrome P450 2C19, sequence (P33261 whole entry): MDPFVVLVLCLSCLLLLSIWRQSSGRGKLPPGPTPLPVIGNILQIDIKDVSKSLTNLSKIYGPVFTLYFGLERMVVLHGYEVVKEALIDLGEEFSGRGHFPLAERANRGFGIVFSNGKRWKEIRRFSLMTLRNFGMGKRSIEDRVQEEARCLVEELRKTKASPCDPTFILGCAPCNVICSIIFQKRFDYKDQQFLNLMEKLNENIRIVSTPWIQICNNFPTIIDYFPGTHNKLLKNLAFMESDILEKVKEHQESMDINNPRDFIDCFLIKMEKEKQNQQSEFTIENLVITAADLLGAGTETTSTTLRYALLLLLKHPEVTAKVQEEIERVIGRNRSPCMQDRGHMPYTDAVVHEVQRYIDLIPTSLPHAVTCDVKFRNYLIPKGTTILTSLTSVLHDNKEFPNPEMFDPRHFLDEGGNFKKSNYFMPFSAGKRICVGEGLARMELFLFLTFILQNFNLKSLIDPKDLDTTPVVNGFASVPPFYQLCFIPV

Cytochrome P450 2D6 = Cytochrome P450 2D6 (Homo sapiens, UniProt P10635);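 further: CYP2D6 member of a cytochrome P450 panel assay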
Cytochrome P450 2D6, sequence (P10635 whole entry): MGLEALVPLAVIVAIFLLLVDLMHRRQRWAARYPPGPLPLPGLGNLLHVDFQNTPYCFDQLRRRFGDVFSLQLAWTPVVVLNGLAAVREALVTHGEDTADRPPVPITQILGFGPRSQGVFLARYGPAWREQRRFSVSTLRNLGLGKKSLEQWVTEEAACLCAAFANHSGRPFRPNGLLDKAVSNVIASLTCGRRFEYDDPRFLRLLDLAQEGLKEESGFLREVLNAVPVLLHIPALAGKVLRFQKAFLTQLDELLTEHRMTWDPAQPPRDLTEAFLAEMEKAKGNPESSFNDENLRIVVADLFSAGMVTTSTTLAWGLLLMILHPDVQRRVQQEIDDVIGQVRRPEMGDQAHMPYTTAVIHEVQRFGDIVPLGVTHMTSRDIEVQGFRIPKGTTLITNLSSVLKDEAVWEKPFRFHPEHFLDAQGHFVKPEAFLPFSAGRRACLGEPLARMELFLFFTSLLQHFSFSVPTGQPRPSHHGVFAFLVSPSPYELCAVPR

[4] = target: Glyceraldehyde-3-phosphate dehydrogenase (Homo sapiens, UniProt P04406)
Glyceraldehyde-3-phosphate dehydrogenase, sequence (P04406 whole entry, the tested form may be a part): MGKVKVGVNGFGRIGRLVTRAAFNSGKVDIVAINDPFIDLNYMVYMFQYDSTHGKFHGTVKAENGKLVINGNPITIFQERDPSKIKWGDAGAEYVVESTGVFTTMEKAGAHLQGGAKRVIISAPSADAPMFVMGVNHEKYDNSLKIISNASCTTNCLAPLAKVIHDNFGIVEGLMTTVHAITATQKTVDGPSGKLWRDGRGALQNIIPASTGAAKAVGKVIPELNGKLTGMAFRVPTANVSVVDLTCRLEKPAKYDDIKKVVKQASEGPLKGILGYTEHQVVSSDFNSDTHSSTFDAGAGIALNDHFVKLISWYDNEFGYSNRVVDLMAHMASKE

[5] = off-target signal loss in HeLa-CEM21 co-culture – HeLa F-luc CTL cells, cherry-picked, counter-screen for HIV-1 Env fusion inhibitor project, dose response (AID 652040); assay type: functional, cell-based;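 further: potency for signal decrease marking cytotoxic or nonspecific inhibition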
[6] = Shn3 3'UTR reporter inhibitors, dose response, cell-based, Clone20 osteoblasts, firefly luciferase, cherry-picked (AID 624132); assay type: functional;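 further: firefly luciferase luminescence from reporter carrying the Shn3 3'UTR in osteoblasts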
H4 = experiment: Luminescence Cell-Based Dose Response HTS to Identify Activators of 5'UTR Stem-Loop Driven Prion Protein mRNA Translation in H4 Neuroglioblastoma Cells. [Related pubchem assays: 1829 (Project Summary), 1814 (Primary HTS)]; assay type: functional; conditions: Homo sapiens
cells [7] = assay type: functional, cell-based
cells [8] = assay type: functional, cell-based; remark: listed apart in the source
[9] = Luminescence Cell-Based Dose Response HTS to Identify Activators of Luciferase Translation or Activity in H4 […] Cells. [Related pubchem assays: 1829 (Project Summary), 1814 (Primary HTS)]; assay type: functional
[10] = Luminescence Cell-Based Dose Retest to Confirm Inhibitors of Cancer Stem Cells. [Related pubchem assays (depositor defined):AID2717, AID2721]; assay type: functional; conditions: Homo sapiens
[11] = target: T1, Ubiquitin-conjugating enzyme E2 N (Homo sapiens, UniProt P61088); assay type: functional;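 further: Dose-response confirmation in a TR-FRET assay detecting UBC13-driven polyubiquitin chain formation, inhibition measured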
T1 sequence (P61088 whole entry): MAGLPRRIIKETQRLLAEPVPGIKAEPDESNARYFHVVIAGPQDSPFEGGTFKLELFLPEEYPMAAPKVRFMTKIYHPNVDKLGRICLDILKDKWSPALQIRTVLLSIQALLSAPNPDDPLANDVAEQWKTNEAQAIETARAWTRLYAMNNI

[12] = target: T2, DNA repair protein RAD52 homolog (Homo sapiens, UniProt P43351); assay type: functional, biochemical
T2 sequence (P43351 whole entry): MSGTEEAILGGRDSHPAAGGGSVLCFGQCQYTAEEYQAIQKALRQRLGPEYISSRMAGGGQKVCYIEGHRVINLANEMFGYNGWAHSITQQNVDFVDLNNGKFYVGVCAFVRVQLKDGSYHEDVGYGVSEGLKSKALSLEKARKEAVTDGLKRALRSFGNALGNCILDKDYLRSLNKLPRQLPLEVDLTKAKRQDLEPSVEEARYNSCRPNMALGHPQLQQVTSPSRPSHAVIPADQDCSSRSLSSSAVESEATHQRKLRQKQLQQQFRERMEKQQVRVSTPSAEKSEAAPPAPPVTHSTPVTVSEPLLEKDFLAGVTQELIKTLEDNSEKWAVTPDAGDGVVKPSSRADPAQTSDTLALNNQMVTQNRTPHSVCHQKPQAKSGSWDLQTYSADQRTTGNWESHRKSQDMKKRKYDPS

[13] = target: Induced myeloid leukemia cell differentiation protein Mcl-1 (Homo sapiens, UniProt Q07820); assay type: functional
Induced myeloid leukemia cell differentiation protein Mcl-1, sequence (Q07820 whole entry): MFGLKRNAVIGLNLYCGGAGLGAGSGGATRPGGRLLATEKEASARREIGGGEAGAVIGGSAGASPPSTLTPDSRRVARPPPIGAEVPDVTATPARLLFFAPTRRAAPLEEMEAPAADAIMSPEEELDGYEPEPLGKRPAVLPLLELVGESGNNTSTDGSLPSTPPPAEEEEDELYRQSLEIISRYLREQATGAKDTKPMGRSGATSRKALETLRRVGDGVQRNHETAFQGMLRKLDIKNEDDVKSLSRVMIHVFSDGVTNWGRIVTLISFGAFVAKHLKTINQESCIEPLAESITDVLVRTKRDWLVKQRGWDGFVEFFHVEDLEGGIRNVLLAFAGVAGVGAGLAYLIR

[14] = target: T3, Heat shock factor protein 1 (Mus musculus, UniProt P38532); experiment: HSF1 potentiators in luciferase reporter cells, confirmation, cell-based, NIH3T3, luminescence, dose retest (AID 435004); assay type: functional;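 further: stress induced by proteasome inhibitor MG132 added 30 min after compound; luciferase reporter driven by HSF1 response element in NIH3T3 cells; actives raise luminescence as potentiators of the MG132 stress response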
T3 sequence (P38532 whole entry): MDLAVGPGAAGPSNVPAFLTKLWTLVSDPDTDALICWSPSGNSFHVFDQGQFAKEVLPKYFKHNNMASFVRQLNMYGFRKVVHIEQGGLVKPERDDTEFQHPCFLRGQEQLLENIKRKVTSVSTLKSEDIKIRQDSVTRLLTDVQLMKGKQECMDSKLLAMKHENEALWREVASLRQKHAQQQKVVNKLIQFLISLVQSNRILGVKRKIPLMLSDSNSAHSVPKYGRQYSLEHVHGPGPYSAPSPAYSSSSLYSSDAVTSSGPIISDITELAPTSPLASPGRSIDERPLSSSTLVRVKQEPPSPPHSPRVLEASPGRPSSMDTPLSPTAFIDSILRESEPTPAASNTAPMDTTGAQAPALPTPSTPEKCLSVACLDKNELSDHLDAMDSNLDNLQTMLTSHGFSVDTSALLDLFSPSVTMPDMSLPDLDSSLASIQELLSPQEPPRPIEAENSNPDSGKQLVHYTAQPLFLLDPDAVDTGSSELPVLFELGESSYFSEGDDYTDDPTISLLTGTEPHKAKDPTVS

H9c2 = experiment: cells; assay type: functional, cell-based; conditions: Rattus norvegicus, H9c2, Myocardium;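 further: confirmatory concentration-response retest of ultra-high-throughput screening hits for modulation of myocardial damage; cell death induced by hydrogen peroxide oxidative stress; compound pretreatment for 60 min then peroxide exposure for 2 h; potency is for protecting the cells against peroxide damage rather than for killing them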
Cytochrome P450 1A2 = target: T4, Cytochrome P450 1A2 (Homo sapiens, UniProt P05177);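 further: PubChem cytochrome P450 panel assay, CYP1A2 panel member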
T4 sequence (P05177 whole entry): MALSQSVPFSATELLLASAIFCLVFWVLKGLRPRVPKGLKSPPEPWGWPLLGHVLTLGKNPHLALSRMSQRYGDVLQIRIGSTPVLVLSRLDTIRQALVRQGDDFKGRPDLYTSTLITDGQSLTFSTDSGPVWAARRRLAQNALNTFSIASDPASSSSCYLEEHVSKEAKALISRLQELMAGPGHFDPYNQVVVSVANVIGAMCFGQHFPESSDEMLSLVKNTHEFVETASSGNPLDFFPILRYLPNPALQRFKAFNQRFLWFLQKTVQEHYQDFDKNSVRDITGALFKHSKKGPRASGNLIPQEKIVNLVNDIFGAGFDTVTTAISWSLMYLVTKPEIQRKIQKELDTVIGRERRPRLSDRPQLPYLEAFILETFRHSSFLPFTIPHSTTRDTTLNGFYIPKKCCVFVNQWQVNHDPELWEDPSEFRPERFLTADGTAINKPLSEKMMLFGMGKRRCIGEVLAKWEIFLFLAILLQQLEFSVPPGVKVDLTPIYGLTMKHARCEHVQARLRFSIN

Cytochrome P450 3A4 = Cytochrome P450 3A4 (Homo sapiens, UniProt P08684);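 further: CYP3A4 tested as one member of a cytochrome P450 panel screen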
Fatty acid synthase = Fatty acid synthase (Homo sapiens, UniProt P49327); experiment: FAS thioesterase domain inhibitors, dose response, biochemical, kinetic fluorescence intensity (AID 624326); assay type: functional;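 further: rate of fluorescence rise from hydrolysis of a fluorogenic O-methyl fluorescein ester substrate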
Fatty acid synthase, sequence (P49327 whole entry, the tested form may be a part): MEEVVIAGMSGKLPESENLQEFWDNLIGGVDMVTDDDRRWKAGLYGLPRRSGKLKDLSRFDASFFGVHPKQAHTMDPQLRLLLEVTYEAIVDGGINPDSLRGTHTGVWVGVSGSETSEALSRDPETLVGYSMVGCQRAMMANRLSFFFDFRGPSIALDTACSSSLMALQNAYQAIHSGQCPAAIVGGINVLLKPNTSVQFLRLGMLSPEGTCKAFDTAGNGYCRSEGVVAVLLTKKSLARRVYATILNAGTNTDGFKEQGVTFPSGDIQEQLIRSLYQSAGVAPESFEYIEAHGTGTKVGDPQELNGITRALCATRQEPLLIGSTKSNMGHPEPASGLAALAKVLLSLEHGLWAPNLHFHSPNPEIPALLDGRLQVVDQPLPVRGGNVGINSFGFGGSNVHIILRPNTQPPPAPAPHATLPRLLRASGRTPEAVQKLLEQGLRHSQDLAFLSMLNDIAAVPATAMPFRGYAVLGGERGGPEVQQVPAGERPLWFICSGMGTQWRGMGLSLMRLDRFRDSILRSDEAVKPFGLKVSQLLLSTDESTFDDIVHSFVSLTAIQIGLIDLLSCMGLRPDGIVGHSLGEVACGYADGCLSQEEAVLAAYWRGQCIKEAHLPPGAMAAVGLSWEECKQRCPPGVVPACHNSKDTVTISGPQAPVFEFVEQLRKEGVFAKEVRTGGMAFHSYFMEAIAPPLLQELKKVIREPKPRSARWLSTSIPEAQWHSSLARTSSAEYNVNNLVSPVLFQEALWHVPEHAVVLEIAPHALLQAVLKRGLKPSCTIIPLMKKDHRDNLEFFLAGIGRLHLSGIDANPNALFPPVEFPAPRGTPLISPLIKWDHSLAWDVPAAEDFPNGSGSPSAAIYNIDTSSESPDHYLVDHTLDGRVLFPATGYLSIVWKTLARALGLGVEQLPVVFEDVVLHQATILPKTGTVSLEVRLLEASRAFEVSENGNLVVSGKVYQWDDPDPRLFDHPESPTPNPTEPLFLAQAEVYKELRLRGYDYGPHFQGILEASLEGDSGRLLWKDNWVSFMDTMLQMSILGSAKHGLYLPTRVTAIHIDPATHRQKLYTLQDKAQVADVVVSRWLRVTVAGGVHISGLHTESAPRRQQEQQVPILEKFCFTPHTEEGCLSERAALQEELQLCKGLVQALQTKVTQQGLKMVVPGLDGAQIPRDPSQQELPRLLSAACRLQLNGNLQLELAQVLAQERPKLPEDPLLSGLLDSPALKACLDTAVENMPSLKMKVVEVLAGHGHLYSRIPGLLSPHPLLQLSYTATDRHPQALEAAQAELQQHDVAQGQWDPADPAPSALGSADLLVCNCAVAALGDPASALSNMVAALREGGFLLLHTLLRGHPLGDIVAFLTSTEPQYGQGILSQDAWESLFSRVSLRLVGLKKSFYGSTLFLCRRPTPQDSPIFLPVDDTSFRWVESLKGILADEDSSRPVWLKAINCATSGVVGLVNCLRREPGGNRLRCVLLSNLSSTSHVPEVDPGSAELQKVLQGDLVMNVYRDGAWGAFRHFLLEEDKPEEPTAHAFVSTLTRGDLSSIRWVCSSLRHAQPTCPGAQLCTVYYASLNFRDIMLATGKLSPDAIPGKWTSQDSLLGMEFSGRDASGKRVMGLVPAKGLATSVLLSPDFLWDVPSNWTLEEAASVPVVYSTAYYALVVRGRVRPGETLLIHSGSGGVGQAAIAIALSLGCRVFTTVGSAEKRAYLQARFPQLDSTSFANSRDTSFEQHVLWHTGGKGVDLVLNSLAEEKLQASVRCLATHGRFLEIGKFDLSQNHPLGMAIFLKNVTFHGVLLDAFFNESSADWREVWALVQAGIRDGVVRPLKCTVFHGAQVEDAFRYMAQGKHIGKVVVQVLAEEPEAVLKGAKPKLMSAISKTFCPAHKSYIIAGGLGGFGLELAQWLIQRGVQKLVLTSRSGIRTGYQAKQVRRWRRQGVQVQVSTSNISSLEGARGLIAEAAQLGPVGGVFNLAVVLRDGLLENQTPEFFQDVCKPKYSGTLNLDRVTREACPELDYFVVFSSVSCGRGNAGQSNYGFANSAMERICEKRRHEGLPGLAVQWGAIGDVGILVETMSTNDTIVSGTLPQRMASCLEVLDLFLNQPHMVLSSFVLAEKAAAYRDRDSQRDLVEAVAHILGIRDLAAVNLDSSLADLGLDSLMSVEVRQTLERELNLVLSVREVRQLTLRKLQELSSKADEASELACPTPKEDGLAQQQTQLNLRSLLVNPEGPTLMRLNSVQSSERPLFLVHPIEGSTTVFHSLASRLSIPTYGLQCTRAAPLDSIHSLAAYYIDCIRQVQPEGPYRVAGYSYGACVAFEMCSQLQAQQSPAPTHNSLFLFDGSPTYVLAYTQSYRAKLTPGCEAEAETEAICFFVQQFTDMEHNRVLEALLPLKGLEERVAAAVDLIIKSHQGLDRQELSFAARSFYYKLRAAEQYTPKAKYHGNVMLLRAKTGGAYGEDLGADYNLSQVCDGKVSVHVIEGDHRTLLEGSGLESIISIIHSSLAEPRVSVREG

[15] = target: T3, Heat shock factor protein 1; experiment: inhibition of MG132-induced HSE-luciferase signal, confirmation, cell-based, NIH3T3, luminescence, dose retest (AID 2382); assay type: functional;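 further: NIH3T3 fibroblasts with HSF1-driven luciferase reporter stressed by proteasome inhibitor MG132; luminescence from HSF1-driven luciferase expression after 8 hours of MG132 stress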

For `CC(C)CC#Cc1ccc2c(c1)O[C@@H](CN(C)S(=O)(=O)c1ccc(F)cc1)[C@@H](C)CN([C@H](C)CO)S2(=O)=O`, the AC50 [1] was 10.1 µM (active), the AC50 [2] was 19.6 µM (active) and the AC50 [3] was 10.2 µM (active).
For `Cc1cnc(CNc2ncnc3ccc(-c4ccccc4CN(C)C)cc23)cn1`, the AC50 (Cytochrome P450 2C9) was “inconclusive” and the AC50 (Cytochrome P450 2C19) was 31.6 µM (inconclusive).
For `Cc1nn(C(=O)CN2C(=O)c3ccccc3C2=O)c(C)c1Br`, the AC50 (Cytochrome P450 2D6) was 7.08 µM (inconclusive), the AC50 (Cytochrome P450 2C9) was “inconclusive” and the AC50 (Cytochrome P450 2C19) was 4.47 µM (inconclusive).
With `COc1ccc(S(=O)(=O)Nc2cccnc2)c(OC)c1` the IC50 [4] was > 100 µM (not active).
For `O=C(Nc1cc(Cl)cc(Cl)c1)C(c1ccccc1)N1CCCCC1` (stereo not drawn), the AC50 [5] was 7.36 µM (active), the AC50 [1] was 8.47 µM (active) and the AC50 [2] was 3.35 µM (active).
With `COc1ccc(CCNC(=O)CCC(=O)N2CCOc3ccc(Cl)cc32)cc1OC` the AC50 [6] was > 70 µM (inactive).
With `CN(C)/N=C/C=C1\CCC/C(=C/c2cccs2)C1=O` the EC50 (H4) was > 120 µM (not active), the EC50 (cells [7]) was > 350 µM (not active) and the EC50 (cells [8]) was 5.27 µM (active). The EC50 [9] was 0.452 µM (active).
For `O=C(NCC(F)(F)F)[C@@H]1c2ccccc2C(=O)N(CC23CC4CC(CC(C4)C2)C3)[C@H]1c1ccc(CO)cc1`, the AC50 [2] was 0.304 µM (active) and the AC50 [3] was 2.43 µM (active).
For `CCC(C)[C@H]1CN=C(S)N1CCc1cc(C(F)(F)F)cc(C(F)(F)F)c1` (stereo partly drawn), the AC50 [6] was 21.6 µM (active).
In the case of `Cc1cc(N2CCN(C)CC2)nc2ccc(NC(=S)N3CCN(c4ccc(F)cc4)CC3)cc12`, the AC50 [10] is reported as 5.34 µM (active) and the IC50 [11] is reported as > 20 µM (inactive).
In the case of `CN1CC[C@@H]2CN[C@H](c3ccccc3Br)C[C@@H]21`, the AC50 [12] is reported as 4.58 µM (active).
For `CCOc1ccc(NC(=O)N(CCN2CCOCC2)Cc2ccc3c(c2)CCCN3CC)cc1`, the IC50 [13] was 0.852 µM (active).
For `CCOC(=O)N1CCN(C(=O)CN(C)S(=O)(=O)c2ccc3c(c2)C(C)(C)C(=O)N3C)CC1`, the AC50 (Cytochrome P450 2C9) was “inconclusive” and the AC50 (Cytochrome P450 2C19) was 3.16 µM (inconclusive).
For `COc1cc(COCC(O)CN2CCN(CCN3C(=O)c4cccc5cccc(c45)C3=O)CC2)cc(OC)c1OC` (stereo not drawn), the AC50 [12] was 3.54 µM (active) and the EC50 [14] was 59.2 µM (active).
In the case of `C[N+](C)(C)CC(=O)N/N=C/c1c2ccccc2cc2ccccc12`, the AC50 [12] is reported as 4.16 µM (active).
With `Oc1cccc2c(O)nccc12` the IC50 (H9c2) was 31.3 µM (inactive), the AC50 (Cytochrome P450 2C9) was “inconclusive” and the AC50 (Cytochrome P450 1A2) was 15.8 µM (inconclusive). For the same compound, the AC50 (Cytochrome P450 3A4) was 25.1 µM (inconclusive).
In the case of `O=C(Cc1c[nH]c2ccccc12)OCC(=O)c1ccccc1`, the AC50 (Cytochrome P450 2C9) is reported as “inconclusive”.
For `CN(C)C1=C(Cl)C(=O)N(c2ccc(C(F)(F)F)cc2)C1=O`, the IC50 [4] was > 50 µM (inconclusive).
For `O=S(=O)(c1cccc2c(Cl)cccc12)N1CCCNCC1`, the AC50 (Cytochrome P450 2D6) was 39.8 µM (inconclusive) and 25.1 µM (inconclusive), the AC50 (Cytochrome P450 2C9) was “inconclusive” and the AC50 (Cytochrome P450 1A2) was 15.8 µM (inconclusive) and 31.6 µM (inconclusive).
In the case of `O=C(NCCCCO)c1cc(-c2ccc(Cl)cc2Cl)n[nH]1`, the IC50 [4] is reported as > 10 µM (inconclusive).
For `C[C@@H]1NC(=O)[C@H](CCCN=C(N)N)NC(=O)c2cc([N+](=O)[O-])cc(I)c2NCCC[C@@H](C(N)=O)NC1=O`, the AC50 [12] was 12.3 µM (active).
With `COc1ccc(C2N(S(=O)(=O)c3ccc(C)cc3)CCN2S(=O)(=O)c2ccc(C)cc2)cc1` the AC50 [5] was 6.47 µM (active), the AC50 [1] was 0.715 µM (active) and the AC50 [2] was 3.05 µM (active). For the same compound, the AC50 [3] was 4.68 µM (active).
For `CCN(CC(=O)NCc1cccs1)S(=O)(=O)c1ccc([N+](=O)[O-])cc1`, the IC50 (Fatty acid synthase) was 17.7 µM (active).
With `Cn1nc(N)c2c(-c3ccccc3)c(C#N)c(N)nc21` the EC50 [15] was > 195 µM (not active) and the IC50 [11] was > 20 µM (inactive).
With `NC[C@H](Cc1ccccc1)NCCc1cc(C(F)(F)F)cc(C(F)(F)F)c1` the IC50 [11] was > 20 µM (inactive).
In the case of `Sc1[nH]cnc2c3cc(Cl)ccc3nc1-2`, the AC50 [5] is reported as 2.35 µM (active) and the AC50 [2] is reported as 3.37 µM (active).
For `Cc1ccc(/C=C2\SC(=S)N(Cc3ccccc3)C2=O)o1`, the IC50 [13] was 3.76 µM (not active).
With `Cc1ccc(-c2nnn(CC(=O)N(CC3CCCO3)C(C(=O)NC3CCCCC3)c3ccc(F)cc3)n2)o1` (stereo not drawn) the AC50 [5] was 1.27 µM (active), the AC50 [1] was 2.45 µM (active) and the AC50 [2] was 0.79 µM (active). The AC50 [3] was 2.56 µM (active).
For `Cc1cc(C(=O)OCC(=O)NCCCN2CCCC2=O)c2ccccc2n1`, the AC50 (Cytochrome P450 2C9) was “inconclusive”, the AC50 (Cytochrome P450 1A2) was 14.1 µM (inconclusive) and the AC50 (Cytochrome P450 2C19) was 35.5 µM (inconclusive).
For `CN(C)CCNC(=O)c1cccc(-c2cnc3c(NC=O)cc(-c4cc(F)c(F)c(F)c4)cn23)c1`, the AC50 [12] was 7.21 µM (active).
With `Cn1c(C(=O)NCCCN2CCN(c3ccccc3F)CC2)cc2c(O)nc3ccccc3c21` the AC50 [5] was 24.5 µM (active), the AC50 [1] was 10.3 µM (active) and the AC50 [2] was 2.82 µM (active). For the same compound, the AC50 [3] was 8.93 µM (active).
